Where a name gives a salt, the structure may show the parent alone. Read-outs that look alike come from different tables or passages of the source.
Experiments:
[1] = test system: U87 MG (glioblastoma astrocytoma); assay: Cell viability (MTT assay), U87 MG; format: cell-based; conditions: for IC50: MTT, 48-h incubation, triplicate, read-out: Cytotoxicity IC50 (μM) ± SD, U87 MG
Description: (§1) Cancer cell lines such as MDA-MB-231 (breast adenocarcinoma), DU145 (prostate carcinoma) and U87 MG (glioblastoma astrocytoma) were purchased from National Centre for Cell Sciences (NCCS) (Pune, India). Cytotoxic activity of compounds (>80% hIMPDH2 inhibition at 10 μM) was evaluated using colorimetric MTT assay on the above-mentioned cell lines. Briefly, cells were grown in DMEM media supplemented with foetal bovine serum (FBS) 10% and penicillin–streptomycin (50 U/ml, 50 µg/ml) at 37 °C, CO2 (5%) and air (95%). Logarithmically, growing cells were seeded using 96-well plate at different concentrations of the test compounds ranging from 0.01 to 100 μM (seeding density: MDA-MB-231: 10,000 cells/well, DU145: 8000 cells/well, U87 MG: 5000 cells/well). […] Each dilution of test compound was added in triplicate. Following 48-h incubation with the compounds, cells were incubated with MTT reagent (5 mg/ml) for 4 h, and then 100 μl of DMSO was added to dissolve formazan crystals. The absorbance was then measured at 540 nm and 630 nm (background scan) using EPOCH 2 BioTek microplate reader. The IC50 values for the tested compounds were calculated and expressed in μM using mean of triplicate readings.

[2] = target: T1, hIMPDH2 (Homo sapiens, UniProt P12268); assay: In vitro hIMPDH2 inhibition assay; format: biochemical; conditions: for inhibition at 10 µM / hIMPDH2 enzyme % Inhibition: ± SD, at 10 µM; for inhibition at 10 µM: read-out: hIMPDH2 enzyme % Inhibition; for IC50: triplicate, determined when inhibition >70% at 10 µM, read-out: hIMPDH2 enzyme IC50 (µM) ± SD
T1 construct: purchased NovoCIB SAS (Lyon, France)
Description: The enzyme (hIMPDH2) was purchased from NovoCIB SAS (Lyon, France). […] The assay was performed in a 200 µl final volume in 96-well UV plates (Tarsons, 980040, Tarsons Products Pvt. Ltd., Kolkata, India) with a reaction buffer composed of 100 mM Tris–HCl (pH 8.6), 100 mM KCl and 5 mM DTT, 4% v/v DMSO plus or minus test compound and 0.15 mU of purified hIMPDH2 enzyme per well (from 1.5 mg/ml stock solution). […] The reaction was initiated by the addition of (substrate buffer) 0.2 mM of IMP and 0.2 mM of NAD^+ and the assay was allowed to proceed at 37 °C for 45 min. The generated NADH was measured by reading the absorbance at 340 nm. […] The MPA (10 µM) was used as a positive control and DMSO as a vehicle control. […] Enzyme inhibition and IC50 values were expressed in % inhibition and μM, respectively.

[3] = test system: DU145 (prostate carcinoma); assay: Cell viability (MTT assay), DU145; format: cell-based; conditions: for IC50: MTT, 48-h incubation, triplicate, read-out: Cytotoxicity IC50 (μM) ± SD, DU145
Description: as §1

[4] = test system: MDA-MB-231 (breast adenocarcinoma); assay: Cell viability (MTT assay), MDA-MB-231; format: cell-based; conditions: for IC50: MTT, 48-h incubation, triplicate, read-out: Cytotoxicity IC50 (μM) ± SD, MDA-MB-231
Description: as §1

[5] = hPBMC proliferation assay; format: cell-based; conditions: human, human peripheral blood mononuclear cells (hPBMC), read-out: % cell viability
Text: Higher lipophilicity and masking of the –COOH in 1 could possibly be responsible for this observation since usually acids are prevented from entering in the CNS.[35] […] The possibility of the title compounds behaving as prodrugs could be minute due to the difficulty in hydrolysing the amide linkage inside cells and release of the active form “MPA”.

inhibition at 10 µM [2] [%] | hIMPDH2 enzyme % Inhibition [2] [%] | IC50 [2] [µM] | SMILES | also measured
99.9 ± 1.2 | – | – | COc1c(C)c2c(c(O)c1C/C=C(\C)CCC(=O)O)C(=O)OC2 [Compound 1, Mycophenolic acid, reference compound] | IC50 ([1]; Homo sapiens, U-87 MG): 10.7 ± 0.21 µM; IC50 ([3]; Homo sapiens, DU-145): 2.94 ± 0.09 µM; IC50 ([4]; Homo sapiens, MDA-MB-231): 4.38 ± 0.06 µM; viability [5]: 63%
59.1 ± 1.91 | – | – | COc1c(C)c2c(c(O)c1C/C=C(\C)CCC(=O)N[C@@H](C)c1ccccc1)C(=O)OC2 [Compound 14, (S)(E)-6–(4-hydroxy-6-methoxy-7-methyl-3-oxo-1,3-dihydroisobenzofuran-5-yl)-4-methyl-N-(1-phenylethyl)hex-4-enamide] | –
> 70 | 73.94 ± 2.84 | 0.82 ± 0.32 | COc1c(C)c2c(c(O)c1C/C=C(\C)CCC(=O)N[C@H](C)c1ccccc1)C(=O)OC2 [Compound 15] | –
> 70 | 72.04 ± 1.11 | 0.73 ± 0.06 | COc1c(C)c2c(c(O)c1C/C=C(\C)CCC(=O)NCc1ccccc1Cl)C(=O)OC2 [Compound 16] | –
– | 67.18 ± 4.16 | – | COc1c(C)c2c(c(O)c1C/C=C(\C)CCC(=O)NCc1ccco1)C(=O)OC2 [Compound 17] | –
96.1 ± 2.51 | – | 0.33 ± 0.11 | COc1ccc(CNC(=O)CC/C(C)=C/Cc2c(O)c3c(c(C)c2OC)COC3=O)cc1 [Compound 18] | IC50 ([1]; Homo sapiens, U-87 MG): 5.26 ± 0.18 µM; IC50 ([3]; Homo sapiens, DU-145): 1.8 ± 0.07 µM; IC50 ([4]; Homo sapiens, MDA-MB-231): 2.42 ± 0.11 µM
73.4 ± 3.62 | – | 0.6 ± 0.13 | COc1c(C)c2c(c(O)c1C/C=C(\C)CCC(=O)NCc1ccc(C)cc1)C(=O)OC2 [Compound 19] | –
– | 81.36 ± 1.95 | 0.57 ± 0.11 | COc1c(C)c2c(c(O)c1C/C=C(\C)CCC(=O)NCc1ccc(Cl)cc1)C(=O)OC2 [Compound 20] | IC50 [1]: 7.31 ± 0.17 µM; IC50 [3]: 2.69 ± 0.11 µM; IC50 [4]: 4.1 ± 0.23 µM
57.4 ± 1.02 | – | – | COc1c(C)c2c(c(O)c1C/C=C(\C)CCC(=O)NCc1ccncc1)C(=O)OC2 [Compound 21] | –
59.4 ± 1.81 | – | – | COc1c(C)c2c(c(O)c1C/C=C(\C)CCC(=O)NCc1ccccn1)C(=O)OC2 [Compound 22] | –
84 ± 2.13 | – | 0.5 ± 0.18 | COc1c(C)c2c(c(O)c1C/C=C(\C)CCC(=O)NCc1ccccc1C)C(=O)OC2 [Compound 23] | IC50 ([1]; Homo sapiens, U-87 MG): 4.66 ± 0.07 µM; IC50 ([3]; Homo sapiens, DU-145): 1.28 ± 0.04 µM; IC50 ([4]; Homo sapiens, MDA-MB-231): 0.77 ± 0.04 µM; potency relative to MPA, MDA-MB-231 ([4]; fold vs MPA): five-fold more potent than MPA
– | 93.62 ± 3.17 | 0.48 ± 0.02 | COc1c(C)c2c(c(O)c1C/C=C(\C)CCC(=O)NCCCCc1ccccc1)C(=O)OC2 [Compound 24] | IC50 ([1]; Homo sapiens, U-87 MG): 3.35 ± 0.09 µM; potency relative to MPA, U87 MG ([1]; fold vs MPA): three-fold more active than MPA; IC50 ([3]; Homo sapiens, DU-145): 1.09 ± 0.02 µM; potency relative to MPA, DU145 ([3]; fold vs MPA): three-fold higher potency than MPA; IC50 ([4]; Homo sapiens, MDA-MB-231): 1.46 ± 0.07 µM; viability [5]: 65%
– | 87.09 ± 4.54 | 0.51 ± 0.08 | COc1c(C)c2c(c(O)c1C/C=C(\C)CCC(=O)NCc1ccc3c(c1)OCO3)C(=O)OC2 [Compound 25] | IC50 [1]: 8.16 ± 0.27 µM; IC50 [3]: 2.53 ± 0.15 µM; IC50 [4]: 1.86 ± 0.16 µM
36 ± 3.86 | – | – | COc1c(C)c2c(c(O)c1C/C=C(\C)CCC(=O)NCCN1CCOCC1)C(=O)OC2 [Compound 26] | –
30.8 ± 2.82 | – | – | COc1cccc(NC(=O)CC/C(C)=C/Cc2c(O)c3c(c(C)c2OC)COC3=O)c1 [Compound 27, (E)-6–(4-hydroxy-6-methoxy-7-methyl-3-oxo-1,3-dihydroisobenzofuran-5-yl)-N-(3-methoxyphenyl)-4-methylhex-4-enamide] | –
– | 54.84 ± 1.15 | – | COc1ccc(NC(=O)CC/C(C)=C/Cc2c(O)c3c(c(C)c2OC)COC3=O)cc1 [Compound 28] | –
– | – | – | COc1cccc2c1C(=O)c1c(O)c3c(c(O)c1C2=O)C[C@@](O)(C(=O)CO)C[C@@H]3O[C@H]1C[C@H](N)[C@H](O)[C@H](C)O1 [Doxorubicin HCl, reference compound] | IC50 ([1]; Homo sapiens, U-87 MG): 0.11 ± 0.02 µM; IC50 ([3]; Homo sapiens, DU-145): 0.21 ± 0.06 µM; IC50 ([4]; Homo sapiens, MDA-MB-231): 0.54 ± 0.08 µM
